From patent US8802597B2, “Herbicidal pyrimidines” (E I du Pont de Nemours and Company, priority 2003, dated 2014)
Where two headings read alike, the source gives them in different places.

Assays:
Test in all cases: Test C pre/postemergence
Format in all cases: in vivo
[1] = system: morningglory (Ipomoea coccinea); settings: Ipomoea, read-out: Plant response rating, Morningglory; for pest or weed control at 250 g/ha: 250 g ai/ha; for pest or weed control at 500 g/ha: 500 g ai/ha
In short: (§1)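 Applications: preemergence onto seeded soil and postemergence onto 1- to 4-leaf seedlings, compound carried in non-phytotoxic solvent plus surfactant. Kept in greenhouse 12 to 14 days. Scored visually relative to untreated controls, 0 (no effect) to 100 (complete control).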

[2] = system: johnsongrass (Sorghum halepense); settings: Sorghum halepense; for pest or weed control at 62 g/ha: 62 g ai/ha; for pest or weed control at 125 g/ha: 125 g ai/ha; for pest or weed control at 250 g/ha: 250 g ai/ha; for pest or weed control at 500 g/ha: 500 g ai/ha
In short: as §1

kochia (Kochia scoparia) = settings: Bassia scoparia; for pest or weed control at 62 g/ha: 62 g ai/ha; for pest or weed control at 125 g/ha: 125 g ai/ha; for pest or weed control at 250 g/ha: 250 g ai/ha; for pest or weed control at 500 g/ha: 500 g ai/ha
In short: as §1

[3] = system: cocklebur (Xanthium strumarium); settings: Xanthium strumarium; for pest or weed control at 62 g/ha: 62 g ai/ha; for pest or weed control at 125 g/ha: 125 g ai/ha; for pest or weed control at 250 g/ha: 250 g ai/ha; for pest or weed control at 500 g/ha: 500 g ai/ha
In short: as §1

[4] = system: woolly cupgrass (Eriochloa villosa); settings: Eriochloa villosa; for pest or weed control at 62 g/ha: 62 g ai/ha; for pest or weed control at 125 g/ha: 125 g ai/ha; for pest or weed control at 250 g/ha: 250 g ai/ha; for pest or weed control at 500 g/ha: 500 g ai/ha
In short: as §1

[5] = system: Surinam grass (Brachiaria decumbens); settings: Urochloa decumbens; for pest or weed control at 125 g/ha: 125 g ai/ha; for pest or weed control at 500 g/ha: 500 g ai/ha; for pest or weed control at 62 g/ha: 62 g ai/ha; for pest or weed control at 250 g/ha: 250 g ai/ha
In short: as §1

[6] = post-emergence, Postemergence, scale 0 to 100
[7] = pre-emergence, Preemergence, scale 0 to 100
[8] = post-emergence, Postemergence, scale 0 to 100 (0 no effect, 100 complete control), read-out: Johnsongrass plant response rating
[9] = post-emergence, Postemergence, scale 0 to 100, read-out: Plant response rating, Johnsongrass
[10] = pre-emergence, Preemergence, scale 0 to 100, read-out: Plant response rating, Johnsongrass
[11] = post-emergence, Postemergence, scale 0 to 100 (0 no effect, 100 complete control), read-out: Kochia plant response rating
[12] = post-emergence, Postemergence, scale 0 to 100, read-out: Plant response rating, Kochia
[13] = pre-emergence, Preemergence, scale 0 to 100, read-out: Plant response rating, Kochia
[14] = post-emergence, Postemergence, scale 0 to 100 (0 no effect, 100 complete control), read-out: Cocklebur plant response rating
[15] = post-emergence, Postemergence, scale 0 to 100, read-out: Plant response rating, Cocklebur
[16] = pre-emergence, Preemergence, scale 0 to 100, read-out: Plant response rating, Cocklebur
[17] = post-emergence, Postemergence, scale 0 to 100 (0 no effect, 100 complete control), read-out: Cupgrass, Woolly plant response rating
[18] = post-emergence, Postemergence, scale 0 to 100, read-out: Plant response rating, Cupgrass, Woolly
[19] = pre-emergence, Preemergence, scale 0 to 100, read-out: Plant response rating, Cupgrass, Woolly
[20] = post-emergence, Postemergence, scale 0 to 100 (0 no effect, 100 complete control), read-out: Surinam Grass plant response rating
[21] = post-emergence, Postemergence, scale 0 to 100, read-out: Plant response rating, Surinam Grass
[22] = pre-emergence, Preemergence, scale 0 to 100, read-out: Plant response rating, Surinam Grass

CNc1nc(C2CC2)nc(C(=O)OC)c1Br [Compound 5]
pest or weed control at 250 g/ha [1, 6]: 100%
pest or weed control at 500 g/ha [1, 6]: 100%
pest or weed control at 62 g/ha ([1]; pre-emergence, Preemergence, 62 g ai/ha, scale 0 to 100, 0 no effect, 100 complete control): 50%
pest or weed control at 125 g/ha ([1]; pre-emergence, Preemergence, 125 g ai/ha, scale 0 to 100): 80%
pest or weed control at 250 g/ha [1, 7]: 90%
pest or weed control at 500 g/ha [1, 7]: 100%
pest or weed control at 62 g/ha [2, 8]: 0%
pest or weed control at 125 g/ha [2, 8]: 40%
pest or weed control at 250 g/ha [2, 9]: 45%
pest or weed control at 500 g/ha [2, 9]: 45%
pest or weed control at 62 g/ha ([2]; pre-emergence, Preemergence, scale 0 to 100, 0 no effect, 100 complete control, read-out: Plant response rating, Johnsongrass): 5%
pest or weed control at 125 g/ha [2, 10]: 20%
pest or weed control at 250 g/ha [2, 10]: 60%
pest or weed control at 500 g/ha [2, 10]: 70%
pest or weed control at 62 g/ha (kochia (Kochia scoparia); [11]): 100%
pest or weed control at 125 g/ha (kochia (Kochia scoparia); [11]): 100%
pest or weed control at 250 g/ha (kochia (Kochia scoparia); [12]): 100%
pest or weed control at 500 g/ha (kochia (Kochia scoparia); [12]): 100%
pest or weed control at 62 g/ha (kochia (Kochia scoparia); pre-emergence, Preemergence, scale 0 to 100, 0 no effect, 100 complete control, read-out: Plant response rating, Kochia): 80%
pest or weed control at 125 g/ha (kochia (Kochia scoparia); [13]): 95%
pest or weed control at 250 g/ha (kochia (Kochia scoparia); [13]): 100%
pest or weed control at 500 g/ha (kochia (Kochia scoparia); [13]): 100%
pest or weed control at 62 g/ha [3, 14]: 80%
pest or weed control at 125 g/ha [3, 14]: 95%
pest or weed control at 250 g/ha [3, 15]: 100%
pest or weed control at 500 g/ha [3, 15]: 100%
pest or weed control at 62 g/ha ([3]; pre-emergence, Preemergence, scale 0 to 100, 0 no effect, 100 complete control, read-out: Plant response rating, Cocklebur): 10%
pest or weed control at 125 g/ha [3, 16]: 90%
pest or weed control at 250 g/ha [3, 16]: 100%
pest or weed control at 500 g/ha [3, 16]: 100%
pest or weed control at 62 g/ha [4, 17]: 5%
pest or weed control at 125 g/ha [4, 17]: 50%
pest or weed control at 250 g/ha [4, 18]: 50%
pest or weed control at 500 g/ha [4, 18]: 70%
pest or weed control at 62 g/ha ([4]; pre-emergence, Preemergence, scale 0 to 100, 0 no effect, 100 complete control, read-out: Plant response rating, Cupgrass, Woolly): 0%
pest or weed control at 125 g/ha [4, 19]: 0%
pest or weed control at 250 g/ha [4, 19]: 0%
pest or weed control at 500 g/ha [4, 19]: 0%
pest or weed control at 125 g/ha [5, 20]: 20%
pest or weed control at 500 g/ha [5, 21]: 70%
pest or weed control at 62 g/ha [5, 20]: 0%
pest or weed control at 250 g/ha [5, 21]: 30%
pest or weed control at 62 g/ha ([5]; pre-emergence, Preemergence, scale 0 to 100, 0 no effect, 100 complete control, read-out: Plant response rating, Surinam Grass): 0%
pest or weed control at 125 g/ha [5, 22]: 0%
pest or weed control at 250 g/ha [5, 22]: 0%
pest or weed control at 500 g/ha [5, 22]: 0%
